Test results published in ChEMBL document CHEMBL5260845, “Flavone-based arylamides as potential anticancers: Design, synthesis and in vitro cell-based/cell-free evaluations” (2020).
Calls of active or inactive are those of the source.

What was measured:
[1] = tested on: SR; assay: Antiproliferative activity against human SR cells assessed as cell growth inhibition at 10 uM by SRB assay; assay type: functional, cell-based
[2] = tested on: RPMI-8226; assay: Antiproliferative activity against human RPMI-8226 cells assessed as cell growth inhibition at 10 uM by SRB assay; assay type: functional, cell-based
[3] = tested on: OVCAR-4; assay: Antiproliferative activity against human OVCAR-4 cells assessed as cell growth inhibition at 10 uM by SRB assay relative to control; assay type: functional
[4] = tested on: OVCAR-8; assay: Antiproliferative activity against human OVCAR-8 cells assessed as cell growth inhibition at 10 uM by SRB assay relative to control; assay type: functional
[5] = tested on: HOP-92; assay: Antiproliferative activity against human HOP-92 cells assessed as cell growth inhibition at 10 uM by SRB assay; assay type: functional, cell-based
[6] = tested on: EKVX; assay: Antiproliferative activity against human EKVX cells assessed as cell growth inhibition at 10 uM by SRB assay; assay type: functional
[7] = tested on: CCRF-CEM; assay: Antiproliferative activity against human CCRF-CEM cells assessed as cell growth inhibition at 10 uM by SRB assay; assay type: functional, cell-based
[8] = tested on: Hs-578T; assay: Antiproliferative activity against human Hs-578T cells assessed as inhibition of cell growth at 10 uM by SRB assay; assay type: functional, cell-based
[9] = tested on: HL-60; assay: Antiproliferative activity against human HL-60 cells assessed as cell growth inhibition at 10 uM by SRB assay; assay type: functional, cell-based
[10] = tested on: UACC-62; assay: Antiproliferative activity against human UACC-62 cells assessed as cell growth inhibition at 10 uM by SRB assay relative to control; assay type: functional
[11] = tested on: K562; assay: Antiproliferative activity against human K562 cells assessed as cell growth inhibition at 10 uM by SRB assay; assay type: functional, cell-based
[12] = tested on: NCI-H522; assay: Antiproliferative activity against human NCI-H522 cells assessed as cell growth inhibition at 10 uM by SRB assay; assay type: functional, cell-based
[13] = tested on: BT-549; assay: Antiproliferative activity against triple negative human BT-549 cells assessed as inhibition of cell growth at 10 uM by SRB assay relative to control; assay type: functional
[14] = tested on: Malme-3M; assay: Antiproliferative activity against human Malme-3M cells assessed as cell growth inhibition at 10 uM by SRB assay relative to control; assay type: functional
[15] = tested on: MOLT-4; assay: Antiproliferative activity against human MOLT-4 cells assessed as cell growth inhibition at 10 uM by SRB assay; assay type: functional, cell-based
[16] = tested on: IGROV-1; assay: Antiproliferative activity against human IGROV-1 cells assessed as cell growth inhibition at 10 uM by SRB assay relative to control; assay type: functional
[17] = tested on: NCI-H226; assay: Antiproliferative activity against human NCI-H226 cells assessed as cell growth inhibition at 10 uM by SRB assay; assay type: functional
[18] = tested on: UO-31; assay: Antiproliferative activity against human UO-31 cells assessed as inhibition of cell growth at 10 uM by SRB assay relative to control; assay type: functional
[19] = tested on: SK-MEL-2; assay: Antiproliferative activity against human SK-MEL-2 cells assessed as cell growth inhibition at 10 uM by SRB assay relative to control; assay type: functional; conditions: Homo sapiens, SK-MEL-2, dose 10 µM
[20] = tested on: NCI-H23; assay: Antiproliferative activity against human NCI-H23 cells assessed as cell growth inhibition at 10 uM by SRB assay; assay type: functional
[21] = tested on: SF-295; assay: Antiproliferative activity against human SF-295 cells assessed as cell growth inhibition at 10 uM by SRB assay; assay type: functional, cell-based
[22] = tested on: SNB-75; assay: Antiproliferative activity against human SNB-75 cells assessed as cell growth inhibition at 10 uM by SRB assay; assay type: functional, cell-based
[23] = tested on: SNB-19; assay: Antiproliferative activity against human SNB-19 cells assessed as cell growth inhibition at 10 uM by SRB assay; assay type: functional, cell-based
[24] = tested on: U-251; assay: Antiproliferative activity against human U-251 cells assessed as cell growth inhibition at 10 uM by SRB assay; assay type: functional, cell-based
[25] = tested on: RPMI-8226; assay: Antiproliferative activity against human RPMI-8226 cells assessed as cell growth inhibition at 10 uM by SRB assay relative to control; assay type: functional
[26] = tested on: SF-539; assay: Antiproliferative activity against human SF-539 cells assessed as cell growth inhibition at 10 uM by SRB assay; assay type: functional, cell-based
[27] = tested on: SF-268; assay: Antiproliferative activity against human SF-268 cells assessed as cell growth inhibition at 10 uM by SRB assay; assay type: functional, cell-based
[28] = tested on: HL-60; assay: Antiproliferative activity against human HL-60 cells assessed as cell growth inhibition at 10 uM by SRB assay relative to control; assay type: functional
[29] = tested on: SR; assay: Antiproliferative activity against human SR cells assessed as cell growth inhibition at 10 uM by SRB assay relative to control; assay type: functional
[30] = tested on: MOLT-4; assay: Antiproliferative activity against human MOLT-4 cells assessed as cell growth inhibition at 10 uM by SRB assay relative to control; assay type: functional
[31] = tested on: CCRF-CEM; assay: Antiproliferative activity against human CCRF-CEM cells assessed as cell growth inhibition at 10 uM by SRB assay relative to control; assay type: functional
[32] = tested on: K562; assay: Antiproliferative activity against human K562 cells assessed as cell growth inhibition at 10 uM by SRB assay relative to control; assay type: functional
[33] = tested on: T47D; assay: Antiproliferative activity against estrogen receptor positive human T47D cells assessed as inhibition of cell growth at 10 uM by SRB assay relative to control; assay type: functional

COc1cc2oc(-c3cccc(NC(=O)c4ccc([N+](=O)[O-])cc4)c3)cc(=O)c2c(OC)c1OC
77%: inhibition at 10 µM [13]
< 50%: inhibition at 10 µM [6] | inhibition at 10 µM [17] | inhibition at 10 µM [20]
70.2%: inhibition at 10 µM [14]
active: inhibition [1] | inhibition [2] | inhibition [5] | inhibition [7] | inhibition [8] | inhibition [9] | inhibition [11] | inhibition [12] | inhibition [15] | inhibition [18] | inhibition [21]
57.3%: inhibition at 10 µM [3] | inhibition at 10 µM [4] | inhibition at 10 µM [16]
≤ 46%: inhibition at 10 µM [19]
52.1%: inhibition at 10 µM [10]

COc1cc2oc(-c3cccc(NC(=O)c4cccc(Br)c4)c3)cc(=O)c2c(O)c1OC
82.6%: inhibition at 10 µM [25]
inactive: inhibition [22] | inhibition [23] | inhibition [24] | inhibition [26] | inhibition [27] | inhibition [21]

COc1cc2oc(-c3ccc(NC(=O)c4ccc(C)cc4)cc3)cc(=O)c2c(OC)c1OC
≤ 42.6%: inhibition at 10 µM [28] | inhibition at 10 µM [25] | inhibition at 10 µM [29] | inhibition at 10 µM [30] | inhibition at 10 µM [31] | inhibition at 10 µM [32]
< 50%: inhibition at 10 µM [6] | inhibition at 10 µM [17] | inhibition at 10 µM [20]
active: inhibition [5] | inhibition [8] | inhibition [12] | inhibition [18] | inhibition [21]
≤ 46%: inhibition at 10 µM [19]

COc1cc2oc(-c3cccc(NC(=O)c4ccc(F)cc4)c3)cc(=O)c2c(OC)c1OC
< 50%: inhibition at 10 µM [6] | inhibition at 10 µM [17] | inhibition at 10 µM [20]
active: inhibition [1] | inhibition [2] | inhibition [5] | inhibition [7] | inhibition [8] | inhibition [9] | inhibition [11] | inhibition [12] | inhibition [15] | inhibition [18] | inhibition [21]
51.3%: inhibition at 10 µM [33]
≤ 46%: inhibition at 10 µM [19]

COc1cc2oc(-c3ccc(NC(=O)c4ccc(C(F)(F)F)cc4)cc3)cc(=O)c2c(OC)c1OC
< 50%: inhibition at 10 µM [6] | inhibition at 10 µM [17] | inhibition at 10 µM [20]
active: inhibition [5] | inhibition [8] | inhibition [12] | inhibition [18] | inhibition [21]
≤ 42.6%: inhibition at 10 µM [28] | inhibition at 10 µM [25] | inhibition at 10 µM [29] | inhibition at 10 µM [30] | inhibition at 10 µM [31] | inhibition at 10 µM [32]

COc1cc2oc(-c3ccc(NC(=O)c4ccc(Cl)cc4)cc3)cc(=O)c2c(OC)c1OC
< 50%: inhibition at 10 µM [6] | inhibition at 10 µM [17] | inhibition at 10 µM [20]
active: inhibition [5] | inhibition [8] | inhibition [12] | inhibition [18] | inhibition [21]
≤ 42.6%: inhibition at 10 µM [28] | inhibition at 10 µM [25] | inhibition at 10 µM [29] | inhibition at 10 µM [30] | inhibition at 10 µM [31] | inhibition at 10 µM [32]
